In PubChem BioAssay (NCI):
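Values below derive from 48-hour exposures of cells grown in 96-well plates, with endpoints linearly interpolated between the two concentrations bracketing the appropriate inhibition level. GI50 marks 50% less growth. TGI is the concentration that stops growth completely.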

Legend:
Assay in all cases: NCI-60 cell line screen, 48 h
A498 renal = system: A498 renal
UO-31 renal = system: UO-31 renal
SN12C renal = system: SN12C renal
SF-268 CNS = system: SF-268 CNS
COLO 205 colon = system: COLO 205 colon
NCI-H226 lung = system: NCI-H226 lung
RXF 393 renal = system: RXF 393 renal
M14 melanoma = system: M14 melanoma
SNB-19 CNS = system: SNB-19 CNS
OVCAR-5 ovarian = system: OVCAR-5 ovarian
SF-539 CNS = system: SF-539 CNS
SF-295 CNS = system: SF-295 CNS
PC-3 prostate = system: PC-3 prostate
MCF7 breast = system: MCF7 breast
CCRF-CEM leukemia = system: CCRF-CEM leukemia
MDA-MB-231 breast = system: MDA-MB-231 breast
MOLT-4 leukemia = system: MOLT-4 leukemia
MALME-3M melanoma = system: MALME-3M melanoma
SK-MEL-2 melanoma = system: SK-MEL-2 melanoma
HOP-92 NSCLC = system: HOP-92 NSCLC
NCI-H460 lung = system: NCI-H460 lung
SK-MEL-28 melanoma = system: SK-MEL-28 melanoma
HCC-2998 colon = system: HCC-2998 colon
U251 CNS = system: U251 CNS
NCI/ADR-RES ovarian = system: NCI/ADR-RES ovarian
HL-60(TB) leukemia = system: HL-60(TB) leukemia
HOP-62 NSCLC = system: HOP-62 NSCLC
SW-620 colon = system: SW-620 colon
RPMI-8226 leukemia = system: RPMI-8226 leukemia
KM12 colon = system: KM12 colon
HS 578T breast = system: HS 578T breast
SK-MEL-5 melanoma = system: SK-MEL-5 melanoma
K-562 leukemia = system: K-562 leukemia
T-47D breast = system: T-47D breast
HCT-15 colon = system: HCT-15 colon
UACC-257 melanoma = system: UACC-257 melanoma
OVCAR-4 ovarian = system: OVCAR-4 ovarian
NCI-H522 lung = system: NCI-H522 lung
ACHN renal = system: ACHN renal
SNB-75 CNS = system: SNB-75 CNS
CAKI-1 renal = system: CAKI-1 renal
TK-10 renal = system: TK-10 renal
MDA-MB-435 = system: MDA-MB-435
IGROV1 ovarian = system: IGROV1 ovarian
NCI-H23 lung = system: NCI-H23 lung
OVCAR-8 ovarian = system: OVCAR-8 ovarian
786-0 renal = system: 786-0 renal
HT29 colon = system: HT29 colon
EKVX NSCLC = system: EKVX NSCLC
SK-OV-3 ovarian = system: SK-OV-3 ovarian
A549 NSCLC = system: A549 NSCLC
BT-549 breast = system: BT-549 breast
UACC-62 melanoma = system: UACC-62 melanoma
HCT-116 colon = system: HCT-116 colon
DU-145 prostate = system: DU-145 prostate

C#Cc1nc(C(=O)NCCC(=O)Nc2ccc(NC(=O)c3ccc(/C=C/C(=O)c4nccn4C)cc3)cc2)cs1
GI50 (A498 renal): 7.39 µM
TGI (A498 renal): 19.2 µM
GI50 (UO-31 renal): 0.763 µM
TGI (UO-31 renal): 1.49 µM
GI50 (SN12C renal): 1.3 µM
TGI (SN12C renal): 4.49 µM
GI50 (SF-268 CNS): 1.72 µM
TGI (SF-268 CNS): 13.3 µM
GI50 (COLO 205 colon): 4.95 µM
TGI (COLO 205 colon): 47 µM
GI50 (NCI-H226 lung): 1.35 µM
TGI (NCI-H226 lung): 4.02 µM
GI50 (RXF 393 renal): 1.04 µM
TGI (RXF 393 renal): 2.75 µM
GI50 (M14 melanoma): 3.43 µM
TGI (M14 melanoma): 20.8 µM
GI50 (SNB-19 CNS): 1.83 µM
TGI (SNB-19 CNS): 7.4 µM
GI50 (OVCAR-5 ovarian): 1.58 µM
TGI (OVCAR-5 ovarian): 4.94 µM
GI50 (SF-539 CNS): 0.911 µM
TGI (SF-539 CNS): 1.67 µM
GI50 (SF-295 CNS): 2.37 µM
TGI (SF-295 CNS): 8.43 µM
GI50 (PC-3 prostate): 1.38 µM
TGI (PC-3 prostate): 3.88 µM
GI50 (MCF7 breast): 1.26 µM
TGI (MCF7 breast): 4.98 µM
GI50 (CCRF-CEM leukemia): 0.954 µM
TGI (CCRF-CEM leukemia): 2.32 µM
GI50 (MDA-MB-231 breast): 1.13 µM
TGI (MDA-MB-231 breast): 2.6 µM
GI50 (MOLT-4 leukemia): 1.29 µM
TGI (MOLT-4 leukemia): 3.53 µM
GI50 (MALME-3M melanoma): 1.4 µM
TGI (MALME-3M melanoma): 4.64 µM
GI50 (SK-MEL-2 melanoma): 35.8 µM
TGI (SK-MEL-2 melanoma): > 50 µM
GI50 (HOP-92 NSCLC): 1.07 µM
TGI (HOP-92 NSCLC): 2.78 µM
GI50 (NCI-H460 lung): 1.57 µM
TGI (NCI-H460 lung): 4.6 µM
GI50 (SK-MEL-28 melanoma): 7 µM
TGI (SK-MEL-28 melanoma): 29.9 µM
GI50 (HCC-2998 colon): 2.14 µM
TGI (HCC-2998 colon): 7.95 µM
GI50 (U251 CNS): 0.886 µM
TGI (U251 CNS): 2.04 µM
GI50 (NCI/ADR-RES ovarian): 3.27 µM
TGI (NCI/ADR-RES ovarian): > 50 µM
GI50 (HL-60(TB) leukemia): 0.857 µM
TGI (HL-60(TB) leukemia): 2.53 µM
GI50 (HOP-62 NSCLC): 1.15 µM
TGI (HOP-62 NSCLC): 2.83 µM
GI50 (SW-620 colon): 1.23 µM
TGI (SW-620 colon): 2.83 µM
GI50 (RPMI-8226 leukemia): 0.934 µM
TGI (RPMI-8226 leukemia): 2.2 µM
GI50 (KM12 colon): 2.88 µM
TGI (KM12 colon): 32.5 µM
GI50 (HS 578T breast): 4.55 µM
TGI (HS 578T breast): > 50 µM
GI50 (SK-MEL-5 melanoma): 3.13 µM
TGI (SK-MEL-5 melanoma): 11.1 µM
GI50 (K-562 leukemia): 1.2 µM
TGI (K-562 leukemia): > 50 µM
GI50 (T-47D breast): 2.22 µM
TGI (T-47D breast): > 50 µM
GI50 (HCT-15 colon): 0.85 µM
TGI (HCT-15 colon): 1.98 µM
GI50 (UACC-257 melanoma): 18.7 µM
TGI (UACC-257 melanoma): > 50 µM
GI50 (OVCAR-4 ovarian): 24.9 µM
TGI (OVCAR-4 ovarian): > 50 µM
GI50 (NCI-H522 lung): 1.04 µM
TGI (NCI-H522 lung): 2.27 µM
GI50 (ACHN renal): 0.899 µM
TGI (ACHN renal): 1.66 µM
GI50 (SNB-75 CNS): 1.43 µM
TGI (SNB-75 CNS): 9.71 µM
GI50 (CAKI-1 renal): 2.41 µM
TGI (CAKI-1 renal): 20.1 µM
GI50 (TK-10 renal): 8.94 µM
TGI (TK-10 renal): > 50 µM
GI50 (MDA-MB-435): 1.71 µM
TGI (MDA-MB-435): 6.79 µM
GI50 (IGROV1 ovarian): 0.878 µM
TGI (IGROV1 ovarian): 1.8 µM
GI50 (NCI-H23 lung): 1.22 µM
TGI (NCI-H23 lung): 3.41 µM
GI50 (OVCAR-8 ovarian): 1.75 µM
TGI (OVCAR-8 ovarian): > 50 µM
GI50 (786-0 renal): 0.939 µM
TGI (786-0 renal): 1.76 µM
GI50 (HT29 colon): 1.13 µM
TGI (HT29 colon): 2.54 µM
GI50 (EKVX NSCLC): 2.79 µM
TGI (EKVX NSCLC): > 50 µM
GI50 (SK-OV-3 ovarian): 11.5 µM
TGI (SK-OV-3 ovarian): > 50 µM
GI50 (A549 NSCLC): 2.23 µM
TGI (A549 NSCLC): > 50 µM
GI50 (BT-549 breast): 1.76 µM
TGI (BT-549 breast): 11.3 µM
GI50 (UACC-62 melanoma): 3.01 µM
TGI (UACC-62 melanoma): 10.9 µM
GI50 (HCT-116 colon): 1 µM
TGI (HCT-116 colon): 2.1 µM
GI50 (DU-145 prostate): 2.32 µM
TGI (DU-145 prostate): > 50 µM
